Source: patent US20260098058A1, “COMPOUND - DIAGNOSTIC MARKER FOR OVARIAN CANCER, METHOD FOR DETECTING ENZYMATIC ACTIVITY, METHOD FOR DIAGNOSIS OF OVARIAN CANCER, KIT COMPRISING THE COMPOUND, USES OF THE COMPOUND AND METHOD FOR THE TREATMENT OF OVARIAN CANCER” (Urteste S.A., priority 2022, published 2026)
Several values for one entry are separate records, joined by “and”; a condition that tells them apart may be missing. Identical values can stand only once. Entries after “also recorded” stand apart in the source; their conditions may differ. Starred links: 1 amine or outer side, 2 acyl side, 3 side chain; linkers in the order of their positions; H or OH if unused. Non-standard residues stand in square brackets, D forms with d. No end group written: not given here. Benzoyl(5-NH,2-NO2) = O=C(c1cc(N[*:1])ccc1[N+](=O)[O-])[*:2]; 2Abz = Nc1ccccc1C(=O)O

Assays:
[1] = test system: urine taken from a person diagnosed with ovarian cancer; assay: RP HPLC analysis of substrate cleavage in urine; format: biochemical, human; conditions: randomly selected urine sample from a person diagnosed with ovarian cancer (FIG. 1)
[2] = test system: urine samples from subjects with ovarian cancer or another neoplastic disease; assay: Selectivity of substrate cleavage by cancer type (urine samples); format: biochemical, human; conditions: intestine, kidney, prostate, pancreas, stomach, lung, uterine body and liver cancer samples (FIG. 3)
Source text: Arabic numerals indicate the numbers of given cancer types. The samples tested for each type of cancer were derived from 20 different patients for each of the tested cancers. The results are mean values for given cancer types.
(§1) The activity of the novel compounds according to the invention was studied in a group of 20 subjects diagnosed with ovarian cancer using the representative compound according to the invention. […] The remaining compounds according to the invention are characterized by the analogous mechanism of action. For this purpose, the representative compound according to the invention, ABZ^1-Asp^2-Thr^3-Phe^4-Ile^5-NH2, was dissolved in dimethyl sulfoxide (at a concentration of 0.5 mg/mL) and then […] of the solution was mixed with […] of a buffer (200 mM Tris-HCl, pH 8.0) and […] of urine from a subject suffering from ovarian cancer. The measurement was performed on a 96-well plate designed for measuring absorbance and each sample was analysed in triplicate at the temperature of 37° C. The duration of the measurement was 60 minutes. During the measurement, the wavelength characteristic for the chromophore (ANB-NH2) being released was monitored at the wavelength 405 nm (range 380-430 nm).
Furthermore, the dependence of the cleavage selectivity of the substrate, i.e. the compound according to the invention, on the cancer type being examined, was studied. […]

[3] = test system: urine samples taken from healthy persons (without a cancer diagnosis); assay: Absorbance measurement of substrate hydrolysis in urine from healthy subjects; format: biochemical, human; conditions: for Results of absorbance analysis (rate of hydrolysis of the substrate): 405 nm, 37° C., 60 minutes, pH 8.0, triplicate
[4] = test system: enzymatic (proteolytic) activity in urine from a subject suffering from ovarian cancer; assay: Absorbance measurement of substrate hydrolysis in urine from subjects with ovarian cancer; format: biochemical, human; conditions: for Results of absorbance analysis (rate of hydrolysis of the substrate): 405 nm, 37° C., 60 minutes, pH 8.0, triplicate
Method: as §1

[5] = test system: enzyme(s) in the studied material; assay: Dependence of substrate hydrolysis on reaction pH; format: biochemical; conditions: FIG. 4
Method: Furthermore, measurements concerning the dependence of the proteolytic activity of the representative compound according to the invention on the reaction pH were performed.

Substance: ABZ-Asp-Thr-Phe-Ile-ANB-NH2 ([2Abz]DTFI-{Benzoyl(5-NH,2-NO2)-NH2})
- cleavage products by RP HPLC [1]: cleaves into the peptide fragment ABZ-Asp-Thr-Phe-Ile-OH and the chromophore group of the compound (ANB-NH2)
- cleavage / increase in absorbance with samples of other cancers [2]: is not subject to cleavage
- increase in absorbance within the diagnostic range ([3]; 20 urine samples from healthy subjects (Z21 to Z40)): no increase in absorbance; also recorded: does not lead to an increase in absorbance
- Results of absorbance analysis (rate of hydrolysis of the substrate) ([3]; urine sample Z21, healthy subject): 0.000000
- Results of absorbance analysis (rate of hydrolysis of the substrate) ([3]; urine sample Z22, healthy subject): 0.000000
- Results of absorbance analysis (rate of hydrolysis of the substrate) ([3]; urine sample Z23, healthy subject): 0.000000
- Results of absorbance analysis (rate of hydrolysis of the substrate) ([3]; urine sample Z24, healthy subject): 0.000000
- Results of absorbance analysis (rate of hydrolysis of the substrate) ([3]; urine sample Z25, healthy subject): 0.000000
- Results of absorbance analysis (rate of hydrolysis of the substrate) ([3]; urine sample Z26, healthy subject): 0.000000
- Results of absorbance analysis (rate of hydrolysis of the substrate) ([3]; urine sample Z27, healthy subject): 0.000000
- Results of absorbance analysis (rate of hydrolysis of the substrate) ([3]; urine sample Z28, healthy subject): 0.000000
- Results of absorbance analysis (rate of hydrolysis of the substrate) ([3]; urine sample Z29, healthy subject): 0.000000
- Results of absorbance analysis (rate of hydrolysis of the substrate) ([3]; urine sample Z30, healthy subject): 0.000000
- Results of absorbance analysis (rate of hydrolysis of the substrate) ([3]; urine sample Z31, healthy subject): 0.000000
- Results of absorbance analysis (rate of hydrolysis of the substrate) ([3]; urine sample Z32, healthy subject): 0.000000
- Results of absorbance analysis (rate of hydrolysis of the substrate) ([3]; urine sample Z33, healthy subject): 0.000000
- Results of absorbance analysis (rate of hydrolysis of the substrate) ([3]; urine sample Z34, healthy subject): 0.000000
- Results of absorbance analysis (rate of hydrolysis of the substrate) ([3]; urine sample Z35, healthy subject): 0.000000
- Results of absorbance analysis (rate of hydrolysis of the substrate) ([3]; urine sample Z36, healthy subject): 0.000000
- Results of absorbance analysis (rate of hydrolysis of the substrate) ([3]; urine sample Z37, healthy subject): 0.000000
- Results of absorbance analysis (rate of hydrolysis of the substrate) ([3]; urine sample Z38, healthy subject): 0.000000
- Results of absorbance analysis (rate of hydrolysis of the substrate) ([3]; urine sample Z39, healthy subject): 0.000000
- Results of absorbance analysis (rate of hydrolysis of the substrate) ([3]; urine sample Z40, healthy subject): 0.000000
- colour intensity of the solution (absorbance in time) ([4]; all urine samples from persons diagnosed with ovarian cancer (samples 1-20)): increased with time
- efficiency of cleavage of the substrate between samples ([4]; samples 3 and 17 compared with samples 1 or 13): less efficiently
- Results of absorbance analysis (rate of hydrolysis of the substrate) ([4]; urine sample 1, ovarian cancer): 0.0066 and 0.006 and 0.0065
- Results of absorbance analysis (rate of hydrolysis of the substrate) ([4]; urine sample 2, ovarian cancer): 0.052 and 0.042 and 0.051
- Results of absorbance analysis (rate of hydrolysis of the substrate) ([4]; urine sample 3, ovarian cancer): 0.0087 and 0.0088 and 0.0086
- Results of absorbance analysis (rate of hydrolysis of the substrate) ([4]; urine sample 4, ovarian cancer): 0.0069 and 0.0051 and 0.0067
- Results of absorbance analysis (rate of hydrolysis of the substrate) ([4]; urine sample 5, ovarian cancer): 0.044 and 0.038 and 0.042
- Results of absorbance analysis (rate of hydrolysis of the substrate) ([4]; urine sample 6, ovarian cancer): 0.037 and 0.022 and 0.028
- Results of absorbance analysis (rate of hydrolysis of the substrate) ([4]; urine sample 8, ovarian cancer): 0.014 and 0.022 and 0.015
- Results of absorbance analysis (rate of hydrolysis of the substrate) ([4]; urine sample 9, ovarian cancer): 0.0088 and 0.0101 and 0.0092
- Results of absorbance analysis (rate of hydrolysis of the substrate) ([4]; urine sample 10, ovarian cancer): 0.009 and 0.0093 and 0.0085
- Results of absorbance analysis (rate of hydrolysis of the substrate) ([4]; urine sample 11, ovarian cancer): 0.0123 and 0.0112 and 0.0145
- Results of absorbance analysis (rate of hydrolysis of the substrate) ([4]; urine sample 12, ovarian cancer): 0.0216 and 0.021 and 0.0199
- Results of absorbance analysis (rate of hydrolysis of the substrate) ([4]; urine sample 13, ovarian cancer): 0.0045 and 0.0052 and 0.0048
- Results of absorbance analysis (rate of hydrolysis of the substrate) ([4]; urine sample 14, ovarian cancer): 0.005 and 0.0061 and 0.0058
- Results of absorbance analysis (rate of hydrolysis of the substrate) ([4]; urine sample 15, ovarian cancer): 0.0017 and 0.0015 and 0.0021
- Results of absorbance analysis (rate of hydrolysis of the substrate) ([4]; urine sample 16, ovarian cancer): 0.0079 and 0.0084 and 0.0072
- Results of absorbance analysis (rate of hydrolysis of the substrate) ([4]; urine sample 18, ovarian cancer): 0.0073 and 0.0068 and 0.0075
- Results of absorbance analysis (rate of hydrolysis of the substrate) ([4]; urine sample 19, ovarian cancer): 0.055 and 0.051 and 0.048
- Results of absorbance analysis (rate of hydrolysis of the substrate) ([4]; urine sample 20, ovarian cancer): 0.0077 and 0.0075 and 0.0081
- dependence of the hydrolysis level of the substrate on pH [5]: maximum activity at alkaline pH
